Source: ChEMBL document CHEMBL1134339, “New 1-aryl-3-(4-arylpiperazin-1-yl)propane derivatives, with dual action at 5-HT1A serotonin receptors and serotonin transporter, as a new class of antidepressants” (J Med Chem, 2001)

Assays:
Mus musculus [1] = assay: Time-dependent effect on 8-OH-DPAT-induced hypothermia (change in body temperature) after 30 min, in mice at 5 mg/kg dose; type: functional
Mus musculus [2] = assay: Antidepressant-like activity in the forced swimming test (FST) in mice at 0.1 mg/kg dose; Antidepressant like activity; type: functional
Mus musculus [3] = assay: Time-dependent effect on 8-OH-DPAT-induced hypothermia (change in body temperature) after 60 min, in mice at 0.5 mg/kg dose; type: functional
Mus musculus [4] = assay: Effect on immobility time in the forced swimming test (FST) in mice at 10 mg/kg dose; type: functional
Mus musculus [5] = assay: Time-dependent effect on 8-OH-DPAT-induced hypothermia (change in body temperature) after 15 min, in mice at 5 mg/kg dose; type: functional
Mus musculus [6] = assay: Antidepressant-like activity in the forced swimming test (FST) in mice at 10 mg/kg dose; Antidepressant like activity; type: functional
Mus musculus [7] = assay: Time-dependent effect on 8-OH-DPAT-induced hypothermia (change in body temperature) after 15 min, in mice at 0.5 mg/kg dose; type: functional
Mus musculus [8] = assay: Time-dependent effect on 8-OH-DPAT-induced hypothermia (change in body temperature) after 30 min, in mice at 0.5 mg/kg dose; type: functional
Mus musculus [9] = assay: Antidepressant-like activity in the forced swimming test (FST) in mice at 1 mg/kg dose; Antidepressant like activity; type: functional
[10] = target: Sodium-dependent serotonin transporter (Rattus norvegicus, UniProt P31652); assay: Binding affinity towards Serotonin transporter from rat cortex measured using [3H]paroxetine
Chain of Sodium-dependent serotonin transporter (P31652 whole entry): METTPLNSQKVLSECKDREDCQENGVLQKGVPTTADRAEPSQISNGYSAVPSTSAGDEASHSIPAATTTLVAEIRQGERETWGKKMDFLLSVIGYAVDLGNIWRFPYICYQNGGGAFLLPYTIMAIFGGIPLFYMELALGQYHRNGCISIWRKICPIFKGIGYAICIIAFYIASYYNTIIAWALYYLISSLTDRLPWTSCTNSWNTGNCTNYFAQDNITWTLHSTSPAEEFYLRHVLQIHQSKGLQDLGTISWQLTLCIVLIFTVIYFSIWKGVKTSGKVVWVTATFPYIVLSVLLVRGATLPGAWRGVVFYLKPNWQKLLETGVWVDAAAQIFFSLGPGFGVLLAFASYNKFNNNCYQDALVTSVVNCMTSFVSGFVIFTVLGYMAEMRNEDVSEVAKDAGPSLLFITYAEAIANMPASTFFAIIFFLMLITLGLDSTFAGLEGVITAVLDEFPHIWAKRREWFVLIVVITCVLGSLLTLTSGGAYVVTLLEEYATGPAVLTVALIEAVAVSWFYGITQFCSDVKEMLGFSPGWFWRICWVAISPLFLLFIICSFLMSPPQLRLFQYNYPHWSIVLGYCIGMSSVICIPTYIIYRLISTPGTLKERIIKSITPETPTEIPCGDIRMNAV

Mus musculus [11] = assay: Effect on immobility time in the forced swimming test (FST) in mice at 1 mg/kg dose; type: functional
[12] = target: T1, 5-hydroxytryptamine receptor 1A (Rattus norvegicus, UniProt P19327); assay: Binding affinity to 5-hydroxytryptamine 1A receptor (5-HT 1A receptor, serotonin receptor) from rat cortex using [3H]8-OH-DPAT as radioligand
T1 sequence (P19327 whole entry): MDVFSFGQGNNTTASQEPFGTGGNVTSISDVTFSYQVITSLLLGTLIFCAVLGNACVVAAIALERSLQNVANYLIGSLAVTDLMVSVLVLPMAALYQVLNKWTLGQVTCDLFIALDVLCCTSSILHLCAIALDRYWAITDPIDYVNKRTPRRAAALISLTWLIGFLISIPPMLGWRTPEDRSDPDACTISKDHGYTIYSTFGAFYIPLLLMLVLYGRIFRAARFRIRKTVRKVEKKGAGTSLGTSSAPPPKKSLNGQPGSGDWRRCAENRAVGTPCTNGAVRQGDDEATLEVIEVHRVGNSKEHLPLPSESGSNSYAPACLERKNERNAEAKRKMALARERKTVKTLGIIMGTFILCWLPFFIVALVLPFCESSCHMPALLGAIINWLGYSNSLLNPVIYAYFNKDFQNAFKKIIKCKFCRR

Mus musculus [13] = assay: Time-dependent effect on 8-OH-DPAT-induced hypothermia (change in body temperature) after 60 min, in mice at 5 mg/kg dose; type: functional
Rattus norvegicus [14] = assay: Effect on helpless behavior in rats and the number of escape failures was determined in shuttle-box session-1 (SB-1) at 1 mg/kg dose; type: functional
Rattus norvegicus [15] = assay: Effect on helpless behavior in rats and the number of escape failures was determined in shuttle-box session-3 (SB-3) at 1 mg/kg dose; type: functional
Rattus norvegicus [16] = assay: Effect on helpless behavior in rats and the number of escape failures was determined in shuttle-box session-2 (SB-2) at 1 mg/kg dose; type: functional
Mus musculus [17] = assay: Antidepressant-like activity in the forced swimming test (FST) in mice at 1 mg/kg dose; type: functional
Mus musculus [18] = assay: Effect on immobility time in the forced swimming test (FST) in mice at 0 mg/kg dose; type: functional
Mus musculus [19] = assay: Antidepressant-like activity in the forced swimming test (FST) in mice at 10 mg/kg dose; type: functional
Rattus norvegicus [20] = assay: Effect on helpless behavior in rats and the number of escape failures was determined in shuttle-box session-1 (SB-1) at 10 mg/kg dose; type: functional
Rattus norvegicus [21] = assay: Effect on helpless behavior in rats and the number of escape failures was determined in shuttle-box session-2 (SB-2) at 10 mg/kg dose; type: functional
Rattus norvegicus [22] = assay: Effect on helpless behavior in rats and the number of escape failures was determined in shuttle-box session-3 (SB-3) at 10 mg/kg dose; type: functional
Mus musculus [23] = assay: Effect on immobility time in the forced swimming test (FST) in mice at 0.1 mg/kg dose; type: functional
Mus musculus [24] = assay: Antidepressant-like activity in the forced swimming test (FST) in mice at 0.01 mg/kg dose; Antidepressant like activity; type: functional
Mus musculus [25] = assay: Effect on immobility time in the forced swimming test (FST) in mice at 0.01 mg/kg dose; type: functional
Mus musculus [26] = assay: Antidepressant-like activity in the forced swimming test (FST) in mice at 0.1 mg/kg dose; type: functional

Row | SMILES | Temperature change (Mus musculus [1]) | Activity (Mus musculus [2]) | Temperature change (Mus musculus [3]) | Immobility time (Mus musculus [4]) | Temperature change (Mus musculus [5]) | Activity (Mus musculus [6]) | Temperature change (Mus musculus [7]) | Temperature change (Mus musculus [8]) | Activity (Mus musculus [9]) | Immobility time (Mus musculus [11]) | Ki [12] | Temperature change (Mus musculus [13]) | Activity (Mus musculus [17]) | Immobility time (Mus musculus [18]) | Activity (Mus musculus [19]) | Ki ([10]; read-out: Ki) | Immobility time (Mus musculus [23]) | Ki ([12]; read-out: Ki) | also measured
1 | Oc1ccccc1N1CCN(CCC(O)c2ccc3ccccc3c2)CC1 (centres undefined) | -2.41 °C | 0% | -1.12 °C | 24.4 s | -1.97 °C | 93% | -2.52 °C | -2.03 °C | 0% | 178.3 s | 0.19 µM | -0.93 °C |  |  |  |  |  |  | Ki [10]: 0.19 µM
2 | Fc1ccc([C@@H]2CCNC[C@H]2COc2ccc3c(c2)OCO3)cc1 [PAROXETINE] |  |  |  |  |  |  |  |  |  |  |  |  |  |  |  |  |  |  | No. of escape failures (Rattus norvegicus [14]): 3.3; No. of escape failures (Rattus norvegicus [15]): 2.2; No. of escape failures (Rattus norvegicus [16]): 3
3 | COc1ccccc1N1CCN(CCC(O)c2cc(C)sc2C)CC1 (centres undefined) | -1.86 °C |  | -1.21 °C | 103 s | -2.01 °C |  | -2.53 °C | -2.13 °C |  | 111 s | 0.012 µM | -1.26 °C | 13% | 124.3 s | 20% | 0.115 µM |  |  | 
4 | CN(C)CCC=C1c2ccccc2CCc2ccccc21 [AMITRIPTYLINE] |  |  |  |  |  |  |  |  |  |  |  |  |  |  |  |  |  |  | No. of escape failures (Rattus norvegicus [20]): <9; No. of escape failures (Rattus norvegicus [21]): <3.3; No. of escape failures (Rattus norvegicus [22]): <1.2
5 | Oc1ccccc1N1CCN(CCC(O)c2csc3ccccc23)CC1 (centres undefined) | -2.2 °C | 40% | -1.38 °C | 160.9 s | -3.17 °C | 11% | -2.54 °C | -2.01 °C | 0% | 183.3 s |  | -1.32 °C |  | 178 s |  | 0.039 µM | <112.5 s | 0.018 µM | Activity (Mus musculus [24]): 0%; Immobility time (Mus musculus [25]): 186.1 s
6 | COc1ccccc1N1CCN(CCC(=O)c2ccsc2)CC1 | -2.18 °C |  | -1.48 °C | <44.9 s | -2.76 °C |  | -2.52 °C | -2.04 °C |  | <118.8 s |  | -1.88 °C | 34% | 170.1 s | 83% | 0.112 µM | 169.5 s | 0.016 µM | Activity (Mus musculus [26]): 0%
